Test systems include SNB-19; SW-620; MCF7; ACHN; RXF 393; NCI/ADR-RES; HL-60; BT-549; SF-268; UACC-62; UO-31; LOX IMVI; IGROV-1; RPMI-8226; MDA-MB-435; NCI-H226; U-251; OVCAR-5; SK-MEL-28; SK-MEL-2.
Holding throughout (assay): NCI anticancer screen, dose series, 48 h

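How tested: cells in 96-well plates exposed to compound for 48 hours at five concentrations. GI50 marks 50% less growth.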 Calls of active or inactive are those of the source. Rule as the data show it: active = GI50 up to about 1.1 µM and inactive = higher.

On to `CCCCCCCCCC(=O)N[C@@H](c1ccco1)[C@@H](O)C(=O)O[C@H]1C[C@@]2(O)[C@@H](OC(=O)c3ccccc3)[C@@H]3[C@]4(OC(C)=O)CO[C@@H]4C[C@H](O)[C@@]3(C)C(=O)[C@H](OC(C)=O)C(=C1C)C2(C)C`, for which the GI50 is 0.0442 µM (active) with SNB-19; 0.0243 µM (active) in the assay on SW-620; 0.00695 µM (active) in the assay with MCF7; 2.92 µM (inactive) with ACHN; 0.043 µM (active) in the assay with RXF 393; 4.57 µM (inactive) in the assay with NCI/ADR-RES. Besides, the GI50 is 0.00966 µM (active) in the assay with HL-60; 0.0419 µM (active) in the assay with BT-549; 0.158 µM (active) in the assay on SF-268; 0.0467 µM (active) in the assay with UACC-62; 1.66 µM (inactive) in the assay on UO-31; 0.0111 µM (active) in the assay with LOX IMVI. The GI50 with IGROV-1 is 0.0324 µM (active); with RPMI-8226, < 0.005 µM (active); in the assay on MDA-MB-435, < 0.005 µM (active); with NCI-H226, 0.0311 µM (active); in the assay with U-251, < 0.0241 µM (active); in the assay on OVCAR-5, 0.0196 µM (active). In addition, the GI50 in the assay with SK-MEL-28 was 0.0498 µM (active).

As for `Nc1c(Cl)ncnc1NCC1(CO)CCC1`, the GI50 with SW-620, in the assay on MCF7, in the assay with ACHN, in the assay on NCI/ADR-RES, in the assay on HL-60 and with BT-549 was > 100 µM (inactive) throughout. Also, the GI50 with SF-268, in the assay with SK-MEL-2, with UO-31, in the assay with LOX IMVI, in the assay on IGROV-1 and in the assay on RPMI-8226 was > 100 µM (inactive) throughout. Also, the GI50 with MDA-MB-435, with NCI-H226, with U-251, in the assay with OVCAR-5 and in the assay on SK-MEL-28 was > 100 µM (inactive) in each case.

With `CCOC(=O)C(SCCO)C(C(=O)OCC)n1cnc2c(=O)[nH]c(NC(C)=O)nc21` (stereo not given), the GI50 with SNB-19, in the assay on SW-620, in the assay with MCF7, in the assay with ACHN, in the assay on NCI/ADR-RES and in the assay on HL-60 was > 100 µM (inactive) throughout. Also, the GI50 is > 100 µM (inactive) in the assay with BT-549; > 100 µM (inactive) with SF-268; > 100 µM (inactive) in the assay with SK-MEL-2; > 100 µM (inactive) in the assay with UACC-62; > 100 µM (inactive) with UO-31; 51.8 µM (inactive) in the assay with LOX IMVI. Besides, the GI50 in the assay with IGROV-1, in the assay on RPMI-8226, in the assay with MDA-MB-435, in the assay with NCI-H226, in the assay with U-251 and in the assay on OVCAR-5 was > 100 µM (inactive) throughout. Besides, the GI50 in the assay with SK-MEL-28 was > 100 µM (inactive).

Consider `O=C1CCC(=O)N1n1c(Cc2ccc(Cl)cc2)n[nH]c1=O`, for which the GI50 with SNB-19, in the assay on SW-620, in the assay with MCF7, in the assay on ACHN, in the assay with NCI/ADR-RES and in the assay on HL-60 was > 100 µM (inactive) each time. Moreover, the GI50 in the assay on BT-549, with SF-268, in the assay on SK-MEL-2, in the assay with UACC-62, in the assay with UO-31 and in the assay on LOX IMVI was > 100 µM (inactive) throughout. In addition, the GI50 with IGROV-1, in the assay on RPMI-8226, in the assay with MDA-MB-435, in the assay with NCI-H226, in the assay with U-251 and with OVCAR-5 was > 100 µM (inactive) in each case. Besides, in the assay with SK-MEL-28, the GI50 is > 100 µM (inactive).

For `O=C(NNC(c1ccccc1)C(F)(F)F)c1ccncc1` (stereo not given), the GI50 in the assay with SNB-19, with SW-620, in the assay on MCF7, in the assay on ACHN, with NCI/ADR-RES and in the assay with HL-60 was > 100 µM (inactive) in each case. Moreover, the GI50 in the assay on BT-549, with SF-268, with SK-MEL-2, with LOX IMVI, in the assay with IGROV-1 and with RPMI-8226 was > 100 µM (inactive) each time. Further, the GI50 in the assay on MDA-MB-435, in the assay on NCI-H226, with U-251, in the assay on OVCAR-5 and in the assay with SK-MEL-28 was > 100 µM (inactive) throughout.

Consider `COc1ccc2c(c1)C1c3ccccc3CCN1CCC2` (stereo not given), for which the GI50 is 55.2 µM (inactive) in the assay on SNB-19; 28.2 µM (inactive) in the assay with SW-620; 41.1 µM (inactive) in the assay with MCF7; 64.9 µM (inactive) in the assay with ACHN; 47.6 µM (inactive) in the assay on RXF 393; 31.2 µM (inactive) with NCI/ADR-RES. The GI50 in the assay with BT-549 was 24.9 µM (inactive); with SF-268, 56.6 µM (inactive); with SK-MEL-2, 23.1 µM (inactive); in the assay on UACC-62, 23.7 µM (inactive); in the assay on UO-31 it was 26.9 µM (inactive); in the assay on LOX IMVI it was 44.7 µM (inactive). Further, the GI50 is 56.6 µM (inactive) with IGROV-1; 28.8 µM (inactive) with RPMI-8226; 19.9 µM (inactive) with MDA-MB-435; 45.3 µM (inactive) with NCI-H226; 32.6 µM (inactive) in the assay with U-251; 93.1 µM (inactive) in the assay with OVCAR-5. The GI50 with SK-MEL-28 is 74 µM (inactive).

Turning to `CC(=O)C(N1CCCCC1)C(O)(C(F)(F)F)C(F)(F)F` (stereo not given), the GI50 was > 100 µM (inactive) in the assay on SNB-19; 98.2 µM (inactive) in the assay on SW-620; > 100 µM (inactive) in the assay on MCF7; > 100 µM (inactive) with ACHN; 38.5 µM (inactive) in the assay on RXF 393; > 100 µM (inactive) with NCI/ADR-RES. Moreover, the GI50 in the assay on HL-60 was > 100 µM (inactive); in the assay on BT-549, > 100 µM (inactive); in the assay on UACC-62, 86.9 µM (inactive); in the assay with UO-31, > 100 µM (inactive); in the assay with LOX IMVI, > 100 µM (inactive); with IGROV-1, 89.9 µM (inactive). Moreover, the GI50 in the assay on RPMI-8226 is 81.8 µM (inactive); with MDA-MB-435, > 100 µM (inactive); in the assay with NCI-H226, > 100 µM (inactive); in the assay on U-251, 88.9 µM (inactive); with OVCAR-5 it was > 100 µM (inactive); in the assay with SK-MEL-28 it was > 100 µM (inactive).

As to `Cc1ccc([S+]([O-])/C=C(\NC(=O)OCc2ccccc2)C(F)(F)F)cc1` (stereo not given), the GI50 was 29.3 µM (inactive) with SNB-19; 19.3 µM (inactive) in the assay with SW-620; 32.2 µM (inactive) in the assay on MCF7; 17.8 µM (inactive) with ACHN; 35.5 µM (inactive) with RXF 393; 33.1 µM (inactive) in the assay on NCI/ADR-RES. The GI50 is 18 µM (inactive) with HL-60; > 100 µM (inactive) in the assay with BT-549; 32.4 µM (inactive) in the assay with SK-MEL-2; 35.2 µM (inactive) in the assay with UACC-62; 21.9 µM (inactive) with UO-31; 32.1 µM (inactive) with LOX IMVI. In addition, the GI50 in the assay with IGROV-1 was 45.3 µM (inactive); in the assay with MDA-MB-435, 22.4 µM (inactive); in the assay with NCI-H226, 34.4 µM (inactive); in the assay on U-251 it was 18.6 µM (inactive); in the assay with OVCAR-5, 52 µM (inactive); in the assay on SK-MEL-28, 22.1 µM (inactive).

As for `C(=C\c1cc[n+](CCc2ccccc2)cc1)/c1ccccc1`, the GI50 in the assay with SNB-19 is 12.7 µM (inactive); with SW-620, 12.1 µM (inactive); in the assay with MCF7, 9.16 µM (inactive); in the assay on ACHN, 26.9 µM (inactive); with RXF 393, 88.7 µM (inactive); in the assay on NCI/ADR-RES, > 100 µM (inactive). Moreover, the GI50 is 11.3 µM (inactive) in the assay on BT-549; 18.1 µM (inactive) in the assay with SF-268; 17.1 µM (inactive) with SK-MEL-2; 10.7 µM (inactive) in the assay on UACC-62; > 100 µM (inactive) in the assay with UO-31; 17.5 µM (inactive) in the assay with LOX IMVI. Also, the GI50 in the assay on IGROV-1 was 31.7 µM (inactive); in the assay on RPMI-8226, 5.45 µM (inactive); with MDA-MB-435 it was 4.98 µM (inactive); in the assay with NCI-H226, 13.8 µM (inactive); in the assay on U-251 it was 4.9 µM (inactive); in the assay with OVCAR-5 it was 22.9 µM (inactive). Moreover, the GI50 in the assay on SK-MEL-28 is 10.6 µM (inactive).

In the case of `Nc1ccc2nc3c(nc2c1)C(=O)c1ccccc1-3`, the GI50 in the assay on SNB-19, with SW-620, in the assay with MCF7, in the assay on ACHN, in the assay with RXF 393 and with NCI/ADR-RES was > 100 µM (inactive) in each case. Further, the GI50 in the assay on HL-60, in the assay on BT-549, in the assay with SF-268, in the assay with UACC-62, in the assay with IGROV-1 and with RPMI-8226 was > 100 µM (inactive) throughout. The GI50 in the assay on MDA-MB-435 is > 100 µM (inactive); in the assay on NCI-H226 it was 29 µM (inactive); in the assay on U-251, > 100 µM (inactive); with OVCAR-5 it was > 100 µM (inactive); in the assay with SK-MEL-28 it was > 100 µM (inactive).

On to `O=[N+]([O-])/C(C(Cl)=C(Cl)Cl)=C(/Nc1ccccc1)Sc1ccccc1`, for which the GI50 was 17.5 µM (inactive) in the assay on SNB-19; 25.1 µM (inactive) in the assay with SW-620; 28.5 µM (inactive) in the assay with MCF7; 19.1 µM (inactive) with ACHN; 19.8 µM (inactive) with RXF 393; 24.4 µM (inactive) in the assay with NCI/ADR-RES. Besides, the GI50 in the assay on HL-60 was 20.6 µM (inactive); with BT-549 it was 25.5 µM (inactive); with SF-268, 14 µM (inactive); with UACC-62, 19.9 µM (inactive); in the assay on UO-31 it was 14 µM (inactive); with LOX IMVI it was 15.7 µM (inactive). Also, the GI50 in the assay on IGROV-1 is 19.9 µM (inactive); in the assay with RPMI-8226, 32.6 µM (inactive); in the assay with MDA-MB-435, 18.1 µM (inactive); in the assay on NCI-H226, 23 µM (inactive); in the assay on U-251, 14.6 µM (inactive); in the assay on SK-MEL-28, 19.7 µM (inactive).
